Read-outs that look alike come from different tables or passages of the source.

Data on one molecule can be found in patent US9512459B2 (priority 2011, dated 2016).

Test [1] concerns the target Sclerotinia sclerotiorum glucose dehydrogenase (FAD-GDH) Ssc-n1 variant N191E, SEQ ID NO: 1 (Sclerotinia sclerotiorum, UniProt A7F9L2, N191E). The following applies: 60 ml culture, crude enzyme; glucose 1-40 mM, pH 6.5, DCIP/PMS. The procedure:
(§1) The transformant BL21 (DE3) expressing each mutated enzyme was precultured. The transformant was inoculated in an amount of 1% with respect to 60 ml of a medium A using a 300-ml baffled flask and shake-cultured under conditions involving 20° C., 28 hours, and 125 rpm. After collection of 50 ml of the medium, the bacterial cells were suspended by the addition of BugBuster (registered trademark) protein extraction reagent (Novagen/Merck KGaA) at a ratio of 5 ml per g of wet cells and incubated at room temperature for 15 minutes with gentle shaking. Insoluble fractions were removed by centrifugation (15 Krpm, 4° C., 20 minutes). Then, the obtained supernatant was dialyzed overnight at 4° C. against a 20 mM potassium phosphate buffer solution (pH 6.5). After the completion of the dialysis, the dialysate was centrifuged, and the supernatant was used as a crude enzyme preparation. Insoluble fractions were suspended in a 20 mM potassium phosphate buffer solution (pH 6.5) at a ratio of 1 ml per 2 ml of the suspension containing the insoluble fractions.
(§2) The GDH activity was measured in a DCIP (0.3 mM)/PMS (0.6 mM) system using a 20 mM potassium phosphate buffer solution (pH 6.5) as a buffer solution and glucose (Glc; 1, 2, 4, 10, 20, and 40 mM) and xylose (Xyl; 4 and 40 mM) as substrates.
(§3) The numeric values in the tables represent a mean of several data about specific activity (U/mg) and productivity (U/L) obtained under the same conditions with 40 mM glucose as a substrate. The obtained crude enzyme preparation was used to observe the correlation between the concentration of the substrate (glucose; 1, 2, 4, 10, 20, and 40 mM) and the activity. The obtained Michaelis-Menten constant (Km value) and apparent maximum activity (Vmax) were determined from a saturation curve determined therefrom.

The target of test [2] is Sclerotinia sclerotiorum glucose dehydrogenase (FAD-GDH) Ssc-n1 variant N191K, SEQ ID NO: 1 (Sclerotinia sclerotiorum, UniProt A7F9L2, N191K). The following applies: 60 ml culture, crude enzyme; glucose 1-40 mM, pH 6.5, DCIP/PMS. The procedure: as §1, §2, §3
Test [3] deals with Sclerotinia sclerotiorum glucose dehydrogenase (FAD-GDH) Ssc-n1 variant N191K/S529G, SEQ ID NO: 1 (Sclerotinia sclerotiorum, UniProt A7F9L2, N191K/S529G). The following applies: 60 ml culture, crude enzyme; glucose 1-40 mM, pH 6.5, DCIP/PMS. The procedure:
as §1, §2, §3

The target of test [4] is Sclerotinia sclerotiorum glucose dehydrogenase (FAD-GDH) Ssc-n1 variant N191R, SEQ ID NO: 1 (Sclerotinia sclerotiorum, UniProt A7F9L2, N191R). The following applies: 60 ml culture, crude enzyme; glucose 1-40 mM, pH 6.5, DCIP/PMS. The procedure: as §1, §2, §3
For test [5], the target named is Sclerotinia sclerotiorum glucose dehydrogenase (FAD-GDH) Ssc-n1 variant N191S, SEQ ID NO: 1 (Sclerotinia sclerotiorum, UniProt A7F9L2, N191S). The following applies: 60 ml culture, crude enzyme; glucose 1-40 mM, pH 6.5, DCIP/PMS. The procedure: as §1, §2, §3
Test [6] deals with Sclerotinia sclerotiorum glucose dehydrogenase (FAD-GDH) Ssc-n1 variant S529G, SEQ ID NO: 1 (Sclerotinia sclerotiorum, UniProt A7F9L2, S529G). The following applies: 60 ml culture, crude enzyme; glucose 1-40 mM, pH 6.5, DCIP/PMS. The procedure:
as §1, §2, §3

Test [7] concerns the target Sclerotinia sclerotiorum glucose dehydrogenase (FAD-GDH) Ssc-n2 variant N191R/S529G, SEQ ID NO: 1 (Sclerotinia sclerotiorum, UniProt A7F9L2, N191R/S529G). The following applies: 60 ml culture, crude enzyme; glucose 1-40 mM, pH 6.5, DCIP/PMS. The procedure:
as §1, §2, §3

Test [8] has as its target Sclerotinia sclerotiorum glucose dehydrogenase (FAD-GDH) Ssc-n2 variant N191S/S529G, SEQ ID NO: 1 (Sclerotinia sclerotiorum, UniProt A7F9L2, N191S/S529G). The following applies: 60 ml culture, crude enzyme; glucose 1-40 mM, pH 6.5, DCIP/PMS. The procedure: as §1, §2, §3
For test [9], the target named is Sclerotinia sclerotiorum glucose dehydrogenase (FAD-GDH) Ssc-n2 variant N191K/S529G, SEQ ID NO: 1 (Sclerotinia sclerotiorum, UniProt A7F9L2, N191K/S529G). The following applies: crude enzyme, glucose 1-40 mM, pH 6.5, DCIP/PMS. The procedure: as §1
(§4) A small-scale expression system was used for some multiple-mutated enzymes. The transformant BL21 (DE3) expressing each mutated enzyme was precultured, and the transformant was inoculated in an amount of 1 vol % with respect to 3 ml of a medium A. The bacterial cells were shake-cultured at 37° C. for 4 hours and then shake-cultured at 20° C. for 20 hours. After the culture, 2 ml of the medium was collected, then suspended by the addition of 400 μl of BugBuster (registered trademark), and then shaken at room temperature for 15 minutes. Then, the suspension was centrifuged (15000 rpm, 4° C., 20 minutes), and the obtained supernatant was used as a crude enzyme preparation.
as §2, §3

Test [10] has as its target Sclerotinia sclerotiorum glucose dehydrogenase (FAD-GDH) Ssc-n2 variant N191K/S529G/G69A, SEQ ID NO: 1 (Sclerotinia sclerotiorum, UniProt A7F9L2, G69A/N191K/S529G). The following applies: crude enzyme, glucose 1-40 mM, pH 6.5, DCIP/PMS. The procedure:
as §1, §4, §2, §3

Test [11] concerns the target Sclerotinia sclerotiorum glucose dehydrogenase (FAD-GDH) Ssc-n2 variant N191K/S529G/G69H, SEQ ID NO: 1 (Sclerotinia sclerotiorum, UniProt A7F9L2, G69H/N191K/S529G). The following applies: crude enzyme, glucose 1-40 mM, pH 6.5, DCIP/PMS. The procedure:
as §1, §4, §2, §3

Test [12] addresses Sclerotinia sclerotiorum glucose dehydrogenase (FAD-GDH) Ssc-n2 variant N191K/S529G/G69N, SEQ ID NO: 1 (Sclerotinia sclerotiorum, UniProt A7F9L2, G69N/N191K/S529G). The following applies: crude enzyme, glucose 1-40 mM, pH 6.5, DCIP/PMS. The procedure: as §1, §4, §2, §3
The target of test [13] is Sclerotinia sclerotiorum glucose dehydrogenase (FAD-GDH) Ssc-n2 variant N191K/S529G/Y70F, SEQ ID NO: 1 (Sclerotinia sclerotiorum, UniProt A7F9L2, N191K/S529G/Y70F). The following applies: crude enzyme, glucose 1-40 mM, pH 6.5, DCIP/PMS. The procedure:
as §1, §4, §2, §3

Consider `OC[C@H]1OC(O)[C@H](O)[C@@H](O)[C@@H]1O` (stereo partly drawn) [glucose], for which the Vmax in test [1] was 5.6 U/mg protein; in [2], 1.6 U/mg protein; in [3], 7.2 U/mg protein; in test [4], 5.6 U/mg protein; in test [5], 3.7 U/mg protein; in test [6] it was 3.6 U/mg protein. In addition, the Vmax in test [7] is 15.7 U/mg protein; in test [8], 19.4 U/mg protein; in test [9] (3 ml culture), 16.9 U/mg protein; in test [9] (60 ml culture), 38.2 U/mg protein; in [10] (3 ml culture), 15.8 U/mg protein; in test [10] (60 ml culture), 26.4 U/mg protein. For the same molecule, the Vmax in test [11] (3 ml culture) was determined as 11.1 U/mg protein; in test [11] (60 ml culture), 6.9 U/mg protein; in [12] (3 ml culture), 11.5 U/mg protein; in [12] (60 ml culture), 13.9 U/mg protein; in test [13] (3 ml culture), 9.0 U/mg protein; in test [13] (60 ml culture) it was 23.8 U/mg protein.
